Measured values from PubChem BioAssay (NCI).
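Assay format: 96-well plates, 48-hour exposure. TGI: total growth inhibition.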

Experiments:
Experiment in all cases: NCI tumour cell line growth inhibition, 48 h
[1] = test system: UACC-62 melanoma
[2] = test system: OVCAR-5 ovarian
[3] = test system: RXF 393 renal
[4] = test system: UO-31 renal
[5] = test system: SF-268 CNS
[6] = test system: M14 melanoma
[7] = test system: COLO 205 colon
[8] = test system: SK-MEL-2 melanoma
[9] = test system: TK-10 renal
[10] = test system: NCI-H226 lung
[11] = test system: HCT-15 colon
[12] = test system: DU-145 prostate
[13] = test system: HT29 colon
[14] = test system: SNB-19 CNS
[15] = test system: NCI-H23 lung
[16] = test system: A498 renal
[17] = test system: HCC-2998 colon
[18] = test system: LOX IMVI melanoma
[19] = test system: SR leukemia
[20] = test system: A549 NSCLC
[21] = test system: MDA-MB-435
[22] = test system: OVCAR-4 ovarian
[23] = test system: IGROV1 ovarian
[24] = test system: HL-60(TB) leukemia
[25] = test system: SNB-75 CNS
[26] = test system: SW-620 colon
[27] = test system: SF-539 CNS
[28] = test system: HOP-62 NSCLC
[29] = test system: T-47D breast
[30] = test system: U251 CNS
[31] = test system: SK-OV-3 ovarian
[32] = test system: CAKI-1 renal
[33] = test system: HCT-116 colon
[34] = test system: MALME-3M melanoma
[35] = test system: MOLT-4 leukemia
[36] = test system: CCRF-CEM leukemia
[37] = test system: KM12 colon
[38] = test system: HOP-92 NSCLC
[39] = test system: ACHN renal
[40] = test system: BT-549 breast
[41] = test system: NCI-H522 lung
[42] = test system: MDA-MB-231 breast
[43] = test system: SF-295 CNS
[44] = test system: K-562 leukemia
[45] = test system: HS 578T breast
[46] = test system: OVCAR-3 ovarian
[47] = test system: UACC-257 melanoma
[48] = test system: NCI-H460 lung
[49] = test system: PC-3 prostate
[50] = test system: MCF7 breast
[51] = test system: SN12C renal
[52] = test system: MDA-N
[53] = test system: 786-0 renal
[54] = test system: SK-MEL-28 melanoma
[55] = test system: SK-MEL-5 melanoma
[56] = test system: EKVX NSCLC
[57] = test system: OVCAR-8 ovarian
[58] = test system: NCI/ADR-RES ovarian
[59] = test system: RPMI-8226 leukemia

c1cc2cc(Cc3ccc4[nH]ccc4c3)ccc2[nH]1
TGI [1]: 38.9 µM | TGI [2]: 39.7 µM | TGI [3]: 37.7 µM | TGI [4]: 34.6 µM | TGI [5]: 55.7 µM | TGI [6]: 37.7 µM | TGI [7]: 33.9 µM | TGI [8]: 44.3 µM | TGI [9]: 52.3 µM | TGI [10]: 34.2 µM | TGI [11]: 28 µM | TGI [12]: 56.2 µM | TGI [13]: 33.1 µM | TGI [14]: 47.5 µM | TGI [15]: 39.8 µM | TGI [16]: 37.3 µM | TGI [17]: 28.8 µM | TGI [18]: 72.3 µM | TGI [19]: 39.2 µM | TGI [20]: 34.8 µM | TGI [21]: 45.7 µM | TGI [22]: 28.7 µM | TGI [23]: 39.4 µM | TGI [24]: 54.4 µM | TGI [25]: 38.6 µM | TGI [26]: 93.3 µM | TGI [27]: 32.9 µM | TGI [28]: 32.2 µM | TGI [29]: 53.7 µM | TGI [30]: 38.5 µM | TGI [31]: 47.8 µM | TGI [32]: 33.5 µM | TGI [33]: 33.1 µM | TGI [34]: 34.4 µM | TGI [35]: 41 µM | TGI [36]: > 100 µM | TGI [37]: 30.9 µM | TGI [38]: 34.9 µM | TGI [39]: 64.8 µM | TGI [40]: 45.8 µM | TGI [41]: 34.5 µM | TGI [42]: 33.8 µM | TGI [43]: 78.9 µM | TGI [44]: > 100 µM | TGI [45]: 66.6 µM | TGI [46]: 32.9 µM | TGI [47]: 57.7 µM | TGI [48]: 31.1 µM | TGI [49]: 30.1 µM | TGI [50]: 32.3 µM | TGI [51]: 31.7 µM | TGI [52]: 26.5 µM | TGI [53]: 33.6 µM | TGI [54]: 96.7 µM | TGI [55]: 30 µM | TGI [56]: 41.7 µM

COC(=O)N1C2C(C[C@@]1(C)C(=O)OC)c1ccccc1N2S(=O)(=O)c1ccccc1 (stereo partly specified)
TGI [57]: > 100 µM | TGI [1]: > 100 µM | TGI [2]: > 100 µM | TGI [3]: > 100 µM | TGI [4]: > 100 µM | TGI [5]: > 100 µM | TGI [6]: > 100 µM | TGI [7]: > 100 µM | TGI [8]: > 100 µM | TGI [9]: > 100 µM | TGI [10]: > 100 µM | TGI [58]: > 100 µM | TGI [59]: > 100 µM | TGI [12]: > 100 µM | TGI [13]: > 100 µM | TGI [14]: > 100 µM | TGI [15]: > 100 µM | TGI [17]: > 100 µM | TGI [18]: > 100 µM | TGI [19]: > 100 µM | TGI [20]: > 100 µM | TGI [21]: > 100 µM | TGI [22]: > 100 µM | TGI [23]: > 100 µM | TGI [24]: > 100 µM | TGI [25]: > 100 µM | TGI [26]: > 100 µM | TGI [29]: > 100 µM | TGI [31]: > 100 µM | TGI [32]: > 100 µM | TGI [33]: > 100 µM | TGI [34]: > 100 µM | TGI [35]: > 100 µM | TGI [36]: > 100 µM | TGI [37]: > 100 µM | TGI [38]: > 100 µM | TGI [39]: > 100 µM | TGI [40]: > 100 µM | TGI [41]: > 100 µM | TGI [42]: > 100 µM | TGI [43]: > 100 µM | TGI [44]: > 100 µM | TGI [45]: > 100 µM | TGI [46]: > 100 µM | TGI [47]: > 100 µM | TGI [48]: > 100 µM | TGI [49]: > 100 µM | TGI [50]: > 100 µM | TGI [52]: > 100 µM | TGI [53]: > 100 µM | TGI [54]: > 100 µM | TGI [55]: > 100 µM | TGI [56]: > 100 µM

CC(=O)c1ccc(Nc2nc3ccccc3c3occc23)cc1
TGI [57]: > 100 µM | TGI [1]: 41.3 µM | TGI [2]: > 100 µM | TGI [4]: 96.4 µM | TGI [5]: 75.7 µM | TGI [6]: 36.5 µM | TGI [7]: 27.6 µM | TGI [8]: 48.6 µM | TGI [9]: 35.8 µM | TGI [10]: 98 µM | TGI [58]: 58 µM | TGI [11]: 33.8 µM | TGI [59]: 29.6 µM | TGI [12]: 75 µM | TGI [13]: 17.3 µM | TGI [14]: > 100 µM | TGI [15]: 46.6 µM | TGI [16]: 12.3 µM | TGI [17]: 28.4 µM | TGI [18]: 61.7 µM | TGI [19]: 18.4 µM | TGI [20]: > 100 µM | TGI [21]: 9.69 µM | TGI [22]: 8.78 µM | TGI [23]: 36.2 µM | TGI [24]: 2.4 µM | TGI [27]: 53.4 µM | TGI [28]: 36.2 µM | TGI [29]: 29.9 µM | TGI [30]: > 100 µM | TGI [31]: 58.8 µM | TGI [32]: 16.1 µM | TGI [33]: 27.8 µM | TGI [34]: 63.4 µM | TGI [35]: 11.9 µM | TGI [36]: 67.3 µM | TGI [37]: 44.3 µM | TGI [38]: 49.8 µM | TGI [39]: 60.2 µM | TGI [40]: 64.4 µM | TGI [41]: 9.12 µM | TGI [42]: > 100 µM | TGI [43]: 41.1 µM | TGI [45]: 54.1 µM | TGI [46]: 71.2 µM | TGI [47]: 31.6 µM | TGI [48]: 23 µM | TGI [49]: > 100 µM | TGI [50]: 56.6 µM | TGI [51]: > 100 µM | TGI [52]: 47.7 µM | TGI [53]: 21.7 µM | TGI [54]: 15.9 µM | TGI [55]: 28.2 µM | TGI [56]: > 100 µM

COc1cccc(C2c3cc4c(cc3OC(NNC(N)=O)C2C)OCO4)c1OC (stereo unspecified)
TGI [57]: 17.9 µM | TGI [1]: 53 µM | TGI [2]: > 100 µM | TGI [3]: 49.9 µM | TGI [4]: 86 µM | TGI [5]: > 100 µM | TGI [6]: 40.6 µM | TGI [7]: 27.8 µM | TGI [8]: 52.1 µM | TGI [9]: 86.3 µM | TGI [10]: 76.1 µM | TGI [11]: 77.7 µM | TGI [59]: 46.1 µM | TGI [12]: 83.1 µM | TGI [13]: 62.3 µM | TGI [14]: > 100 µM | TGI [15]: 77.8 µM | TGI [16]: 51.1 µM | TGI [17]: > 100 µM | TGI [18]: 45.6 µM | TGI [19]: 18.8 µM | TGI [20]: 56 µM | TGI [21]: 70.1 µM | TGI [23]: 83.2 µM | TGI [24]: 57.4 µM | TGI [25]: 59.3 µM | TGI [26]: > 100 µM | TGI [27]: 37.5 µM | TGI [28]: 57.5 µM | TGI [29]: > 100 µM | TGI [30]: 68.2 µM | TGI [31]: 85.3 µM | TGI [32]: 83.4 µM | TGI [33]: 27.6 µM | TGI [34]: 73.8 µM | TGI [35]: 66.8 µM | TGI [36]: > 100 µM | TGI [37]: 62 µM | TGI [38]: 57.8 µM | TGI [39]: > 100 µM | TGI [40]: > 100 µM | TGI [41]: 61.5 µM | TGI [42]: 81.6 µM | TGI [43]: 43.3 µM | TGI [44]: 88 µM | TGI [45]: 45.9 µM | TGI [46]: 50.2 µM | TGI [47]: 92.1 µM | TGI [48]: 68 µM | TGI [49]: 55 µM | TGI [50]: > 100 µM | TGI [51]: > 100 µM | TGI [52]: 82.7 µM | TGI [53]: 16.5 µM | TGI [54]: 72.7 µM | TGI [55]: 43.9 µM | TGI [56]: > 100 µM
